Measured values published in patent US20230331715A1, “SPIRO[3.3]HEPTANE DERIVATIVES FOR THE TREATMENT AND PROPHYLAXIS OF HEPATITIS B VIRUS INFECTION” (priority 2020, published 2023).

What was measured:
Assay type in all cases: cell-based
HBsAg = assay: PHH HBV natural infection assay, HBsAg (alphalisa); conditions: Hepatitis B virus, 72 h, read-out: HBsAg IC50, HBV-infected PHH, culture supernatant, compound refreshed two times with 72-hour interval, alphalisa
Procedure: (§1) Detailed procedures regarding primary human hepatocyte (PHH) HBV natural infection assay are described as below. One tube of frozen PHH (10 million cells) is thawed in 37° C. water bath and then transferred to 20 mL of PHH thawing medium (Sigma, InVitroGRO HT Medium, Cat. S03319) with gently mixing. The cells were then centrifuged at […] for 5 min, the supernatant was discarded and the tube was refilled with 25 mL of PHH plating medium (Sigma, InVitroGRO CP Medium, Cat. S03317). The tube was shaken very gently to re-suspend all cells, and then 50 µl of cells were transferred to each well 384-well collagen I coated plate with appropriate liquid handling equipment, e.g. Integra VIAFLO384 or Agilent Bravo. The cells were then cultured for 24 hours in a cell incubator. For HBV infection, after PHH attachment on the culture plate, the plating medium was removed and replenished with PHH culture medium containing HBV virus. The PHH culture medium was prepared with Dulbecco’s Modified Eagle Medium (DMEM)/F12 (1: 1 in volume ratio) containing 10% fetal bovine serum (Gibco, Cat. 10099141), 5 ng/mL human epidermal growth factor (Gibco, Cat.PHG0311L), 20 ng/mL dexamethasone (Sigma, Cat.D4902-100mg), 250 ng/mL human recombinant insulin (Gibco, Cat.41400045) and 100 U/mL penicillin. HBV virus at 200 genome equivalent (GE) per cell with 4% PEG8000 (Sigma, Cat.P1458) containing culture medium were added to the PHH culture medium for infection. The cells were then cultured for 24 hours in cell incubator. Then the cell culture supernatant was removed. The HBV-infected PHH were cultured with sandwich culture method with PHH culture medium containing 1% DMSO and 0.25 mg/mL matrix gel for 72 hours. The supernatant was then refreshed with PHH culture medium containing different concentrations of testing compounds for two times with 72-hour interval. At the end of treatment, the supernatant was collected for viral markers measurements, including HBsAg, HBeAg, HBV DNA and cytotoxicity. HBsAg and HBeAg were detected using alphalisa method using their specific antibodies. For HBV DNA detection, HBV DNA Quantitative Fluorescence Diagnostic Kit (Sansure Biotech Inc.) was used following the manufacture’s protocol. Cytotoxicity was determined using Cell Counting Kit-8 (CCK8, Dojindo Molecular Technologies, Inc.).
(§2) The compounds of the present invention were tested for their capacity to inhibit HBsAg and HBeAg as described herein.

HBeAg = assay: PHH HBV natural infection assay, HBeAg (alphalisa); conditions: Hepatitis B virus, 72 h, read-out: HBeAg IC50, HBV-infected PHH, culture supernatant, compound refreshed two times with 72-hour interval, alphalisa
Procedure: as §1, §2

[1] = Cytotoxicity in PHH natural infection assay (Cell Counting Kit-8); conditions: human; HBV-infected PHH, CCK8, compound refreshed two times with 72-hour interval
Procedure: as §1

Compound	IC50 (HBsAg) [nM]	IC50 (HBeAg) [nM]	CC50 at 144 h [1] [nM]
O=C(NC1CC2(C1)CC(c1nc3cc(Cl)ccc3s1)C2)c1ccc(S(=O)(=O)C2CC2)o1 (stereo not drawn) [Example 13, N-[6-(5-chloro-1,3-benzothiazol-2-yl)spiro[3.3]heptan-2-yl]-5-cyclopropylsulfonyl-furan-2-carboxamide]	480	360	94900
O=C(NC1CC2(C1)CC(c1nc3cc(Cl)ccc3s1)C2)c1ccc(C(F)(F)F)o1 (stereo not drawn) [Example 14, N-[6-(5-chloro-1,3-benzothiazol-2-yl)spiro[3.3]heptan-2-yl]-5-(trifluoromethyl)furan-2-carboxamide]	2480	2520	> 100000
O=C(NC1CC2(C1)CC(c1nc3ccc(Cl)cc3s1)C2)c1ccc(C(F)(F)F)o1 (stereo not drawn) [Example 15, N-[6-(6-chloro-1,3-benzothiazol-2-yl)spiro[3.3]heptan-2-yl]-5-(trifluoromethyl)furan-2-carboxamide]	2960	2070	> 100000
CC(c1ccc(C(=O)NC2CC3(C2)CC(c2nc4cc(Cl)ccc4s2)C3)o1)S(C)(=O)=O (stereo not drawn) [Example 16, N-[6-(5-chloro-1,3-benzothiazol-2-yl)spiro[3.3]heptan-2-yl]-5-(1-methylsulfonylethyl)furan-2-carboxamide]	2690	1920	23900
CC(C)(c1ccc(C(=O)NC2CC3(C2)CC(c2nc4cc(Cl)ccc4s2)C3)o1)S(C)(=O)=O (stereo not drawn) [Example 17, N-[6-(5-chloro-1,3-benzothiazol-2-yl)spiro[3.3]heptan-2-yl]-5-(1-methyl-1-methylsulfonyl-ethyl)furan-2-carboxamide]	2110	1600	35700
O=C(NC1CC2(C1)CC(c1nc3cc(Cl)ccc3s1)C2)c1ccc(C(O)C(F)(F)F)o1 (stereo not drawn) [Example 18, N-[6-(5-chloro-1,3-benzothiazol-2-yl)spiro[3.3]heptan-2-yl]-5-(2,2,2-trifluoro-1-hydroxyethyl)furan-2-carboxamide]	5520	4590	> 10000
Nc1nc(C(=O)NC2CC3(C2)CC(c2nc4cc(Cl)ccc4s2)C3)cs1 (stereo not drawn) [Example 19, 2-amino-N-[6-(5-chloro-1,3-benzothiazol-2-yl)spiro[3.3]heptan-2-yl]thiazole-4-carboxamide]	7550	6830	31500
O=C(NC1CC2(C1)CC(c1nc3cc(Cl)ccc3s1)C2)c1ccc(S(=O)(=O)N2CCC2)o1 (stereo not drawn) [Example 20, 5-(azetidin-1-ylsulfonyl)-N-[6-(5-chloro-1,3-benzothiazol-2-yl)spiro[3.3]heptan-2-yl]furan-2-carboxamide]	4880	4060	> 10000
O=C(NC1CC2(C1)CC(c1nc3cc(Cl)ccc3s1)C2)c1ccc(S(=O)(=O)N2CC(F)(F)C2)o1 (stereo not drawn) [Example 21, N-[6-(5-chloro-1,3-benzothiazol-2-yl)spiro[3.3]heptan-2-yl]-5-(3,3-difluoroazetidin-1-yl)sulfonyl-furan-2-carboxamide]	1490	1140	> 10000
O=C(NC1CC2(C1)CC(c1nc3cc(Cl)ccc3s1)C2)c1ccc(S(=O)(=O)NC2CCC2)o1 (stereo not drawn) [Example 22, N-[6-(5-chloro-1,3-benzothiazol-2-yl)spiro[3.3]heptan-2-yl]-5-(cyclobutylsulfamoyl)furan-2-carboxamide]	1390	1000	21900
O=C(NC1CC2(C1)CC(c1nc3cc(Cl)ccc3s1)C2)c1ccc(S(=O)(=O)NC2CC(F)(F)C2)o1 (stereo not drawn) [Example 23, N-[6-(5-chloro-1,3-benzothiazol-2-yl)spiro[3.3]heptan-2-yl]-5-[(3,3-difluorocyclobutyl)sulfamoyl]furan-2-carboxamide]	1250	850	14300
